Data: ChEMBL document CHEMBL1201862, “PubChem BioAssay data set” (2004)
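Exposure lasted 48 hours, with cells grown in 96-well plates and compounds tested at five concentrations. GI50 is the concentration that inhibits growth by half.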 Calls of active or inactive are those of the source. Rule as the data show it: active = GI50 up to about 1.1 µM and inactive = higher.

Key:
Test in all cases: NCI tumour cell line growth inhibition, 48 h
[1] = test system: M19-MEL
[2] = test system: SR
[3] = test system: SK-OV-3
[4] = test system: XF498
[5] = test system: RPMI-8226
[6] = test system: SF-295
[7] = test system: SK-MEL-2
[8] = test system: DMS-273
[9] = test system: OVCAR-3
[10] = test system: DLD-1
[11] = test system: HCT-116
[12] = test system: HCC 2998
[13] = test system: SF-268
[14] = test system: MOLT-4
[15] = test system: RXF 393
[16] = test system: ACHN
[17] = test system: K562
[18] = test system: TK-10
[19] = test system: CAKI-1
[20] = test system: HOP-62
[21] = test system: SN12C
[22] = test system: KM12
[23] = test system: NCI-H460
[24] = test system: COLO 205
[25] = test system: A549
[26] = test system: HT-29
[27] = test system: NCI-H226
[28] = test system: OVCAR-8
[29] = test system: HOP-92
[30] = test system: OVCAR-4
[31] = test system: SF-539
[32] = test system: UO-31
[33] = test system: UACC-257
[34] = test system: UACC-62
[35] = test system: SNB-75
[36] = test system: HCT-15
[37] = test system: EKVX
[38] = test system: LXFL 529
[39] = test system: 786-0
[40] = test system: A498
[41] = test system: SK-MEL-28
[42] = test system: KM-20L2
[43] = test system: SW-620
[44] = test system: SK-MEL-5
[45] = test system: HL-60
[46] = test system: DMS-114
[47] = test system: IGROV-1
[48] = test system: U-251
[49] = test system: LOX IMVI
[50] = test system: NCI-H522
[51] = test system: M14
[52] = test system: SNB-19
[53] = test system: CCRF-CEM
[54] = test system: NCI-H23
[55] = test system: HOP-18

## O=C1C=CC(=O)c2cc(Sc3ccccc3)c(=O)c(Sc3ccccc3)cc21
[1]
  GI50: 48.5 µM (inactive)
[2]
  GI50: 25.5 µM (inactive)
[3]
  GI50: 43.2 µM (inactive)
[4]
  GI50: 86.3 µM (inactive)
[5]
  GI50: 37.3 µM (inactive)
[6]
  GI50: > 100 µM (inactive)
[7]
  GI50: > 100 µM (inactive)
[8]
  GI50: > 100 µM (inactive)
[9]
  GI50: 50.9 µM (inactive)
[10]
  GI50: 56.4 µM (inactive)
[11]
  GI50: 32.6 µM (inactive)
[12]
  GI50: > 100 µM (inactive)
[13]
  GI50: 42 µM (inactive)
[14]
  GI50: 24 µM (inactive)
[15]
  GI50: 14 µM (inactive)
[16]
  GI50: 12.8 µM (inactive)
[17]
  GI50: 28.1 µM (inactive)
[18]
  GI50: 64.3 µM (inactive)
[19]
  GI50: > 100 µM (inactive)
[20]
  GI50: > 100 µM (inactive)
[21]
  GI50: > 100 µM (inactive)
[22]
  GI50: > 100 µM (inactive)
[23]
  GI50: > 100 µM (inactive)
[24]
  GI50: 73.3 µM (inactive)
[25]
  GI50: 56.5 µM (inactive)
[26]
  GI50: > 100 µM (inactive)
[27]
  GI50: > 100 µM (inactive)
[28]
  GI50: 31.7 µM (inactive)
[29]
  GI50: 18.9 µM (inactive)
[30]
  GI50: 53.3 µM (inactive)
[31]
  GI50: > 100 µM (inactive)
[32]
  GI50: 37.8 µM (inactive)
[33]
  GI50: > 100 µM (inactive)
[34]
  GI50: 24.8 µM (inactive)
[35]
  GI50: 85.3 µM (inactive)
[36]
  GI50: 50.6 µM
[37]
  GI50: > 100 µM (inactive)
[38]
  GI50: 26.1 µM (inactive)
[39]
  GI50: 88.5 µM (inactive)
[40]
  GI50: > 100 µM (inactive)
[41]
  GI50: 95.1 µM (inactive)
[42]
  GI50: > 100 µM (inactive)
[43]
  GI50: > 100 µM (inactive)
[44]
  GI50: > 100 µM (inactive)
[45]
  GI50: 10.6 µM (inactive)
[46]
  GI50: 22.2 µM (inactive)
[47]
  GI50: 68.5 µM (inactive)
[48]
  GI50: 46.3 µM (inactive)
[49]
  GI50: > 100 µM (inactive)
[50]
  GI50: 12.4 µM (inactive)
[51]
  GI50: > 100 µM (inactive)
[52]
  GI50: > 100 µM (inactive)
[53]
  GI50: 17.3 µM (inactive)
[54]
  GI50: 47.2 µM (inactive)
[55]
  GI50: 71.8 µM (inactive)
